Where two headings read alike, the source gives them in different places.

In experiment [1] the target is Lck (Homo sapiens, UniProt P06239). To be noted: reported in ref [51]; cited from earlier work.
In experiment [2] the test system is TCR-induced IL-2 secretion from hPBL T-cells. Put plainly: T-cell activation: TCR-induced IL-2 secretion from hPBL T-cells (ELISA). Type of experiment: cell-based. To be noted: anti-CD3/anti-CD28 stimulation, 20 hours, FIG. 7B, read-out: IC50 inhibition of IL-2 production in human T-cell cultures. Here is the method: T-cell activation. Whole blood was obtained from normal donors and human peripheral blood lymphocytes (hPBL) were isolated by ficol-hypaque density centrifugation. T-cells were then purified from the hPBL by negative selection using an R&D column following the manufacturers directions (R&D Systems, Minneapolis, Minn.). A 96-well flat-bottomed plate was coated with 10 μg/ml of goat anti-mouse (GAM)-IgG1 (Caltag, Burlingame, Calif.) in PBS overnight at 4C. The GAM-coated plate was flicked out and anti-CD3 mAb (UCHT-1, Coulter/Immunotech, Miami, Fla.) is added at 0.2 μg/ml in AIMV medium (Gibco, Grand Island, N.Y.) for 3 hr. at 37C. Purified T-cells were pre-incubated at 1×10^5/well in AIM V with or without compound for 30 minutes then transferred to the anti-CD3 capture plate. Finally, anti-CD28 (Pharmingen, San Diego, Calif.) in AIMV (150 ng/ml final) was added to each well. Cells were incubated for 20 hours at 37C in 5% CO2 then supernatants were tested by ELISA for cytokine levels (Endogen, Woburn, Mass.).
(An ELISA detects its analyte on a solid surface through an enzyme-linked reagent.)

The target in experiment [3] is T1, ZAP-70 (Homo sapiens, UniProt P43403).
T1 sequence (P43403 1-619): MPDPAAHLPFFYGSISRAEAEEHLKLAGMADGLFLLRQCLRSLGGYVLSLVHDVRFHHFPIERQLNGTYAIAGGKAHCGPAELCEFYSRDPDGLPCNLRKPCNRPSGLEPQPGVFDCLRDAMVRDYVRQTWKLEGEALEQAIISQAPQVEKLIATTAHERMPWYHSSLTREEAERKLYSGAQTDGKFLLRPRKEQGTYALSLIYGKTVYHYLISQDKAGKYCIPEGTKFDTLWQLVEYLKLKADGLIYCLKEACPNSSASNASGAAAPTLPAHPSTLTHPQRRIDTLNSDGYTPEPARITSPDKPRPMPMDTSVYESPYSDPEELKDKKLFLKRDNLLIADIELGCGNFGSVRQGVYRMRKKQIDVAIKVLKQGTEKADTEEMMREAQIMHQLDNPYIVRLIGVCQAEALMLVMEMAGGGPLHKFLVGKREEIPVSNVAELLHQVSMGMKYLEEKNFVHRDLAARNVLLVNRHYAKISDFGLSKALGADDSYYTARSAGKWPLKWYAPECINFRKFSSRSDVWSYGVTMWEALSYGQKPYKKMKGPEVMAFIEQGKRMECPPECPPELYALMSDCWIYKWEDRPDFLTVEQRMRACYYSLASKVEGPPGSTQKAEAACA
The settings on record: reported in ref [51]; read-out: IC50 against ZAP-70; cited from earlier work.

The subject of experiment [4] is TCR-induced phosphotyrosine incorporation into TCR p23 ζ-chain and a 70 kDa protein, Jurkat cells. Type of experiment: cell-based. To be noted: FIG. 7C. Here is the method: Phosphotyrosine western blotting. […] Cells were then transferred to 37° C. water bath for 1 minute. Stimulation was stopped by the addition of 5 volumes of cold PBS containing 200 μM sodium orthovanadate. Cells were spun down and lysed in 150 mM Tris/10 mM HEPES buffer, pH 7.3, containing 1% Triton X-100 and Complete protease inhibitor cocktail (Boehringer Mannheim, Germany) for 30 minutes on ice. […] Blots were probed with anti-phosphotyrosine (4G10, Upstate Biotechnology, Inc., Saranac Lake, N.Y.) and developed using ECL-plus following the manufacturers directions (Amersham, Arlington Heights, Ill.).

Chain of Lck (P06239 whole entry, species assumed): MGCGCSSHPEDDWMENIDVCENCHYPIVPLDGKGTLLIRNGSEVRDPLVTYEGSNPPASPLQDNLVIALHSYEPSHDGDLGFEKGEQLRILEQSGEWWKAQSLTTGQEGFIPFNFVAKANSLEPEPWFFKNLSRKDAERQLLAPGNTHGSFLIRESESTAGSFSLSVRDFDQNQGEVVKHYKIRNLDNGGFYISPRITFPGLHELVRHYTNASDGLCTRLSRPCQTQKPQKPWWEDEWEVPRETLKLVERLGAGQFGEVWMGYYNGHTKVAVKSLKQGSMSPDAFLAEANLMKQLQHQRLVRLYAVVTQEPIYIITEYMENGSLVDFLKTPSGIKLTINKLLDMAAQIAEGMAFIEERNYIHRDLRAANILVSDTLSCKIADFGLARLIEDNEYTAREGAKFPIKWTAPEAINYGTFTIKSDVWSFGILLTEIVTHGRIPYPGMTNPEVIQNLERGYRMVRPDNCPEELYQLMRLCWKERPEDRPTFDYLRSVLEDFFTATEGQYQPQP

As for `Cc1ccc(-c2nn(C(C)(C)C)c3ncnc(N)c23)cc1` [PP1], the “inhibitory activity against Lck compared with PP2” value in experiment [1] was “approximately the same inhibitory activity”.

One may read the IC50 as the concentration that gives 50% inhibition. For the compound `CN[C@@H]1C[C@H]2O[C@@](C)([C@@H]1OC)n1c3ccccc3c3c4c(c5c6ccccc6n2c5c31)C(=O)NC4` [staurosporine], the IC50 in experiment [2] (Homo sapiens, T-cell) came out at 60 nM.

Consider `CC(C)(C)n1nc(-c2ccc(Cl)cc2)c2c(N)ncnc21` [PP2], for which, in experiment [3], the IC50 is at least 100000 nM. In experiment [4], the “inhibition of Lck-dependent phosphorylation of the TCR ζ-chain (p23)” value is listed as “dose-dependent inhibition” and the “inhibition of phosphorylation of a 70 kD protein (likely ZAP-70)” value is listed as “inhibited”. For the same compound, in experiment [2], the IC50 is 600 nM.

The record behind these values is US6589758B1, “Crystal of a kinase-ligand complex and methods of use” (priority 2000, dated 2003).
